Earlier results on one substance are cited in patent US10172922B2, “Rapid-acting insulin compositions” (Eli Lilly and Company, priority 2014, dated 2019).

For the data set the following is noted: on a molar basis.

Turning to “28^B-L-Lysine-29^B-L-proline human insulin [Insulin lispro]”, the “Potency relative to human insulin” value is recorded as “equipotent to human insulin on a molar basis”.
